Data: the supplement of paper PMC8617591

Key:
[1] = system: Mycobacterium tuberculosis Erdman (autoluminescent); test: Einf, fitted maximum growth inhibition of three-drug combination (fraction); higher = stronger maximal inhibition
Method: (§1)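 DiaMOND equipotent three-drug combination dose responses (10 doses, 1.5- or 2-fold spacing, centred on IC90) against autoluminescent M. tuberculosis Erdman in 8 in vitro models. Read-out is OD600, or luminescence for the intracellular and dormancy models, normalised to untreated wells. Hill-fit Einf, AUC25 and GRinf are potency metrics; FIC50 and FIC90 are total Loewe fractional inhibitory concentrations as log2 (negative = synergy).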

[2] = system: Mycobacterium tuberculosis Erdman (autoluminescent); test: GRinf, maximum normalised growth rate inhibition (three-drug combination) (unitless (-1 to 1)); higher = less effect (negative = killing)
Method: as §1

[3] = system: Mycobacterium tuberculosis Erdman (autoluminescent); test: total FIC50 (Loewe) at 50% inhibition, three-drug combination (log2); higher = more antagonistic
Method: as §1

[4] = system: Mycobacterium tuberculosis Erdman (autoluminescent); test: AUC25, normalised area under dose response up to IC25 (three-drug combination) (fraction (0-1)); higher = more potent at low dose
Method: as §1

[5] = system: Mycobacterium tuberculosis Erdman (autoluminescent); test: total FIC90 (Loewe) at 90% inhibition, three-drug combination (log2); higher = more antagonistic
Method: as §1

COc1nc2ccc(Br)cc2cc1[C@@H](c1ccccc1)[C@@](O)(CCN(C)C)c1cccc2ccccc12 [bedaquiline] + CC(C)/N=c1\cc2n(-c3ccc(Cl)cc3)c3ccccc3nc-2cc1Nc1ccc(Cl)cc1 [clofazimine] + CC[C@@H](CO)NCCN[C@@H](CC)CO [ethambutol]
Details	AUC25, [4]	Einf, [1]	GRinf, [2]	total FIC50, [3]	total FIC90, [5]
in vitro model: acidic pH 5.7, time point: constant (~7 days, model-specific)	0.0844	0.852	-0.216	0.516	–
in vitro model: acidic pH 5.7, time point: terminal (~4-5 doublings, model-specific)	0.0687	0.969	-0.273	0.534	0.129
in vitro model: intracellular J774, time point: constant = terminal	–	0.992	-0.72	–	-0.364

Details	AUC25, [4]	Einf, [1]	GRinf, [2]	total FIC50, [3]	total FIC90, [5]
in vitro model: butyrate, time point: constant (~7 days, model-specific)	0.0618	0.945	-0.0931	0.078	–
in vitro model: butyrate, time point: terminal (~4-5 doublings, model-specific)	0.0476	0.976	-0.104	0.111	-0.667
in vitro model: cholesterol 0.05 mM, time point: constant (~7 days, model-specific)	0.0892	0.762	-0.109	0.0426	–
in vitro model: cholesterol 0.05 mM, time point: terminal (~4-5 doublings, model-specific)	0.117	0.937	-0.32	0.424	–
in vitro model: cholesterol-high 0.2 mM, time point: constant (~7 days, model-specific)	0.0568	0.996	-0.788	0.329	–
in vitro model: cholesterol-high 0.2 mM, time point: terminal (~4-5 doublings, model-specific)	0.0708	1	-0.736	0.543	0.542
in vitro model: dormancy (butyrate + nitrate, low O2), time point: constant (~7 days, model-specific)	0.102	0.82	0.429	0.788	–
in vitro model: dormancy (butyrate + nitrate, low O2), time point: terminal (~4-5 doublings, model-specific)	0.0994	0.991	-0.239	0.238	0.0433
in vitro model: standard 7H9 glycerol, time point: constant = terminal	0.0939	0.965	-0.0889	-0.254	–
in vitro model: valerate, time point: constant (~7 days, model-specific)	0.107	0.947	-0.0899	0.469	–
in vitro model: valerate, time point: terminal (~4-5 doublings, model-specific)	0.0804	0.962	-0.0795	0.16	-0.225

COc1nc2ccc(Br)cc2cc1[C@@H](c1ccccc1)[C@@](O)(CCN(C)C)c1cccc2ccccc12 [bedaquiline] + CC(C)/N=c1\cc2n(-c3ccc(Cl)cc3)c3ccccc3nc-2cc1Nc1ccc(Cl)cc1 [clofazimine] + CO[C@H]1/C=C/O[C@@]2(C)Oc3c(C)c(O)c4c(O)c(c(/C=N/N5CCN(C6CCCC6)CC5)c(O)c4c3C2=O)NC(=O)/C(C)=C\C=C\[C@H](C)[C@H](O)[C@@H](C)[C@@H](O)[C@@H](C)[C@H](OC(C)=O)[C@@H]1C [rifapentine]
Details	AUC25, [4]	Einf, [1]	GRinf, [2]	total FIC50, [3]	total FIC90, [5]
in vitro model: acidic pH 5.7, time point: constant (~7 days, model-specific)	0.0909	0.924	-0.309	0.793	–
in vitro model: acidic pH 5.7, time point: terminal (~4-5 doublings, model-specific)	0.0906	0.997	-0.284	0.66	0.55
in vitro model: intracellular J774, time point: constant = terminal	–	0.951	-0.199	–	-0.0198

Details	AUC25, [4]	Einf, [1]	GRinf, [2]	total FIC50, [3]	total FIC90, [5]
in vitro model: butyrate, time point: constant (~7 days, model-specific)	0.0667	0.948	-0.116	0.174	-0.813
in vitro model: butyrate, time point: terminal (~4-5 doublings, model-specific)	0.0586	0.983	-0.124	0.264	-0.221
in vitro model: cholesterol 0.05 mM, time point: constant (~7 days, model-specific)	0.0889	0.716	-0.179	-0.467	–
in vitro model: cholesterol 0.05 mM, time point: terminal (~4-5 doublings, model-specific)	0.085	0.926	-0.231	0.869	-0.165
in vitro model: cholesterol-high 0.2 mM, time point: constant (~7 days, model-specific)	0.0509	0.965	-0.378	-0.0878	-0.883
in vitro model: cholesterol-high 0.2 mM, time point: terminal (~4-5 doublings, model-specific)	0.0654	1	-0.595	0.507	-0.0793
in vitro model: dormancy (butyrate + nitrate, low O2), time point: constant (~7 days, model-specific)	0.0857	0.937	0.218	-0.0609	-0.282
in vitro model: dormancy (butyrate + nitrate, low O2), time point: terminal (~4-5 doublings, model-specific)	0.0766	0.997	-0.206	-0.242	-0.206
in vitro model: standard 7H9 glycerol, time point: constant = terminal	0.079	0.959	-0.0819	-0.0863	-0.842
in vitro model: valerate, time point: constant (~7 days, model-specific)	0.0956	0.895	-0.0953	0.292	–
in vitro model: valerate, time point: terminal (~4-5 doublings, model-specific)	0.0686	0.95	-0.0333	0.461	0.966

COc1nc2ccc(Br)cc2cc1[C@@H](c1ccccc1)[C@@](O)(CCN(C)C)c1cccc2ccccc12 [bedaquiline] + CC(C)/N=c1\cc2n(-c3ccc(Cl)cc3)c3ccccc3nc-2cc1Nc1ccc(Cl)cc1 [clofazimine] + CO[C@H]1/C=C/O[C@@]2(C)Oc3c(C)c(O)c4c(O)c(c(/C=N/N5CCN(C)CC5)c(O)c4c3C2=O)NC(=O)/C(C)=C\C=C\[C@H](C)[C@H](O)[C@@H](C)[C@@H](O)[C@@H](C)[C@H](OC(C)=O)[C@@H]1C [rifampicin]
Details	AUC25, [4]	Einf, [1]	GRinf, [2]	total FIC50, [3]	total FIC90, [5]
in vitro model: acidic pH 5.7, time point: constant (~7 days, model-specific)	0.0895	0.926	-0.41	0.927	–
in vitro model: acidic pH 5.7, time point: terminal (~4-5 doublings, model-specific)	0.0837	0.992	-0.332	0.816	0.52
in vitro model: intracellular J774, time point: constant = terminal	–	0.965	-0.213	–	0.287

Details	AUC25, [4]	Einf, [1]	GRinf, [2]	total FIC50, [3]	total FIC90, [5]
in vitro model: butyrate, time point: constant (~7 days, model-specific)	0.0821	0.954	-0.113	0.164	-0.692
in vitro model: butyrate, time point: terminal (~4-5 doublings, model-specific)	0.0695	0.983	-0.115	0.163	-0.325
in vitro model: cholesterol 0.05 mM, time point: constant (~7 days, model-specific)	0.0702	0.714	-0.146	-0.919	–
in vitro model: cholesterol 0.05 mM, time point: terminal (~4-5 doublings, model-specific)	0.0755	0.925	-0.226	0.904	-0.861
in vitro model: cholesterol-high 0.2 mM, time point: constant (~7 days, model-specific)	0.0563	0.933	-0.277	-0.143	-0.728
in vitro model: cholesterol-high 0.2 mM, time point: terminal (~4-5 doublings, model-specific)	0.0498	0.999	-0.582	0.757	-0.216
in vitro model: dormancy (butyrate + nitrate, low O2), time point: constant (~7 days, model-specific)	0.0659	0.906	0.222	-0.0697	-0.643
in vitro model: dormancy (butyrate + nitrate, low O2), time point: terminal (~4-5 doublings, model-specific)	0.0651	0.994	-0.191	-0.41	-0.344
in vitro model: standard 7H9 glycerol, time point: constant = terminal	0.0883	0.959	-0.1	-0.172	-1.01
in vitro model: valerate, time point: constant (~7 days, model-specific)	0.0872	0.88	-0.0295	0.776	–
in vitro model: valerate, time point: terminal (~4-5 doublings, model-specific)	0.0594	0.936	-0.0101	0.627	0.54
